These results are taken from patent US7465727B2, “(1,10B-dihydro-2-(aminoalkyl-phenyl)-5H-pyrazolo[1,5-c][1,3]Benzoxazin-5-yl)phenyl methanone derivatives as HIV viral replication inhibitors” (priority 2005, dated 2008).

The subject of assay [1] is multi-drug resistant HIV-1 virus (HIV-1-MDR). As to the kind of experiment: microbe, parasite or virus in culture. The class given is cell-based. Particulars: for Activity class for HIV-1-MDR test (pEC50 values): MT4-LTR-EGFP cells, three days incubation, GFP signal, average where more than one run. The method, then: (§1) The compounds were tested in a cellular assay using the MT4-LTR-EGFP cells for anti-viral activity. […] The cellular assay was performed according to the following procedure.
(§2) HIV- or mock-infected MT4-LTR-EGFP cells were incubated for three days in the presence of various concentrations of the inhibitor. Upon infection, the GFP reporter is activated by the viral tat protein. At the end of the incubation period, the GFP signal was measured. In the virus control samples (in the absence of any inhibitor) the maximal fluorescent signal was obtained. The inhibitory activity of the compound was monitored on the virus-infected cells and was expressed as EC50 and EC90. These values represent the amount of the compound required to protect 50% and 90%, respectively, of the cells from virus infection.

Assay [2] has as its system wild type laboratory HIV strain (HIV-1 strain LAI). As to the kind of experiment: microbe, parasite or virus in culture. The class given is cell-based. The method, then: as §1, §2
Setting [3] is: MT4-LTR-EGFP cells, three days incubation, GFP signal, average where more than one run.

Where two headings read alike, the source gives them in different places.

With `CCN(CC)CCCCc1ccc(C2=NN3C(C(=O)c4ccc(C#N)cc4)Oc4ccccc4C3C2)cc1` (stereo not drawn) [Compound 19], the “Activity class for HIV-1-MDR test (pEC50 values)” value (shortened to “Activity class for HIV-1-MDR test”) in assay [1] was determined as 5.43. The “Activity class for HIV-1-LAI test (pEC50 values)” value (“Activity class for HIV-1-LAI test” for short) in assay [2] (setting [3]) amounted to 5.39.

For `N#Cc1ccc(C(=O)C2Oc3ccccc3C3CC(c4ccc(CCCCNCc5ccccc5)cc4)=NN23)cc1` (stereo not drawn) [Compound 18], the “Activity class for HIV-1-MDR test” value in assay [1] is 5.47. The “Activity class for HIV-1-LAI test” value in assay [2] was 5.47.

On to `CN(CCCCc1ccc(C2=NN3C(C(=O)c4ccc(C#N)cc4)Oc4ccccc4C3C2)cc1)C1CCCC1` (stereo not drawn) [Compound 27], for which the “Activity class for HIV-1-MDR test” value in assay [1] is on record as 5.15. Further, the “Activity class for HIV-1-LAI test” value in assay [2] (setting [3]) stood at 5.36.

With `COc1ccc(NCCCCc2ccc(C3=NN4C(C(=O)c5ccc(C#N)cc5)Oc5ccccc5C4C3)cc2)cc1` (stereo not drawn) [Compound 20], in assay [1], the “Activity class for HIV-1-MDR test” value is given as 6.51. Moreover, in assay [2], the “Activity class for HIV-1-LAI test” value amounted to 7.42.

In the case of `COc1ccc(CN(C)Cc2ccc(C3=NN4C(C(=O)c5ccc(S(C)(=O)=O)cc5)Oc5ccccc5C4C3)cc2)cc1` (stereo not drawn) [Compound 29], the “Activity class for HIV-1-MDR test” value in assay [1] is on record as 8.56. In assay [2] (setting [3]), the “Activity class for HIV-1-LAI test” value is reported as 8.47.

On to `CCN(CC)Cc1ccc(C2=NN3C(C(=O)c4ccc(S(C)(=O)=O)cc4)Oc4ccccc4C3C2)cc1` (stereo not drawn) [Compound 30], for which the “Activity class for HIV-1-MDR test” value in assay [1] is given as 7.95. Moreover, the “Activity class for HIV-1-LAI test” value in assay [2] (setting [3]) turned out to be 7.9.

For the molecule `COc1ccc(CN(C)Cc2ccc(C3=NN4C(C(=O)c5ccc(C(C)(C)C)cc5)Oc5ccccc5C4C3)cc2)cc1` (stereo not drawn) [Compound 9], in assay [1], the “Activity class for HIV-1-MDR test” value is 7. Further, the “Activity class for HIV-1-LAI test” value in assay [2] (setting [3]) came out at 7.28.

As to `COc1ccc(CN(C)CCc2ccc(C3=NN4C(C(=O)c5ccc(C#N)cc5)Oc5ccccc5C4C3)cc2)cc1` (stereo not drawn) [Compound 32], in assay [1], the “Activity class for HIV-1-MDR test” value stood at 6.72. For the same molecule, the “Activity class for HIV-1-LAI test” value in assay [2] (setting [3]) turned out to be 7.08.

As for `COc1ccc(NCCCc2ccc(C3=NN4C(C(=O)c5ccc(C#N)cc5)Oc5ccccc5C4C3)cc2)cc1` (stereo not drawn) [Compound 14], the “Activity class for HIV-1-MDR test” value in assay [1] was determined as 6.34. Further, the “Activity class for HIV-1-LAI test” value in assay [2] is given as 6.41.

As to `CN(C)CCN(C)CCCc1ccc(C2=NN3C(C(=O)c4ccc(C#N)cc4)Oc4ccccc4C3C2)cc1` (stereo not drawn) [Compound 15], in assay [1], the “Activity class for HIV-1-MDR test” value was 5.52. Also, the “Activity class for HIV-1-LAI test” value in assay [2] (setting [3]) was found to be 5.42.

Take `CN(CCCc1ccc(C2=NN3C(C(=O)c4ccc(C#N)cc4)Oc4ccccc4C3C2)cc1)C1CCCC1` (stereo not drawn) [Compound 35]: the “Activity class for HIV-1-MDR test” value in assay [1] is 5.81. Moreover, in assay [2] (setting [3]), the “Activity class for HIV-1-LAI test” value came to 5.76.

Consider `N#Cc1ccc(C(=O)C2Oc3ccccc3C3CC(c4ccc(CCCCNCc5ccncc5)cc4)=NN23)cc1` (stereo not drawn) [Compound 21], for which the “Activity class for HIV-1-MDR test” value in assay [1] was found to be 5.2. In addition, the “Activity class for HIV-1-LAI test” value in assay [2] (setting [3]) was 5.23.

As for `CN(C)CCN(C)CCc1ccc(C2=NN3C(C(=O)c4ccc(C#N)cc4)Oc4ccccc4C3C2)cc1` (stereo not drawn) [Compound 34], the “Activity class for HIV-1-MDR test” value in assay [1] was 6.12. Also, the “Activity class for HIV-1-LAI test” value in assay [2] (setting [3]) was found to be 6.25.

On to `COc1ccc(CN(C)CCCc2ccc(C3=NN4C(C(=O)c5ccc(C#N)cc5)Oc5ccccc5C4C3)cc2)cc1` (stereo not drawn) [Compound 25], for which the “Activity class for HIV-1-MDR test” value in assay [1] is reported as 5.04. Besides, in assay [2] (setting [3]), the “Activity class for HIV-1-LAI test” value is 6.53.

Regarding `COc1ccc(CN(C)CCCCc2ccc(C3=NN4C(C(=O)c5ccc(C#N)cc5)Oc5ccccc5C4C3)cc2)cc1` (stereo not drawn) [Compound 23], the “Activity class for HIV-1-MDR test” value in assay [1] was determined as 5.32. In addition, in assay [2] (setting [3]), the “Activity class for HIV-1-LAI test” value is recorded as 5.38.

With `CN(C)CCN(C)Cc1ccc(C2=NN3C(C(=O)c4ccc(C#N)cc4)Oc4ccccc4C3C2)cc1` (stereo not drawn) [Compound 4], the “Activity class for HIV-1-MDR test” value in assay [1] was determined as 6.25. The “Activity class for HIV-1-LAI test” value in assay [2] (setting [3]) worked out at 6.41.

Consider `CCN(CC)Cc1ccc(C2=NN3C(C(=O)c4ccc(C(C)(C)C)cc4)Oc4ccccc4C3C2)cc1` (stereo not drawn) [Compound 11], for which the “Activity class for HIV-1-MDR test” value in assay [1] is on record as 7.59. The “Activity class for HIV-1-LAI test” value in assay [2] (setting [3]) was determined as 7.64.

With `COc1ccc(NCc2ccc(C3=NN4C(C(=O)c5ccc(C#N)cc5)Oc5ccccc5C4C3)cc2)cc1` (stereo not drawn) [Compound 5], the “Activity class for HIV-1-MDR test” value in assay [1] came to 6.5. In addition, the “Activity class for HIV-1-LAI test” value in assay [2] stood at 6.22.

For the molecule `CCN(CC)Cc1ccc(C2=NN3C(C(=O)c4ccc(C#N)cc4)Oc4ccccc4C3C2)cc1` (stereo not drawn) [Compound 1, 4-[4-(4-cyano-benzoyl)-1,9b-dihydro-5-oxa-3,3a-diaza-cyclopenta[a]naphthalen-2-yl]-N,N-diethyl-benzylamine], the EC50 in assay [1] (Human immunodeficiency virus 1, 72 h, read-out: Activity class for HIV-1-MDR test (pEC50 values) (converted)) is 8.71 nM; in assay [2] (Human immunodeficiency virus 1, 72 h, MT4-LTR-EGFP cells, three days incubation, GFP signal, average where more than one run, read-out: Activity class for HIV-1-LAI test (pEC50 values) (converted)) it was 19.1 nM.

As to `CCN(CC)CCc1ccc(C2=NN3C(C(=O)c4ccc(C#N)cc4)Oc4ccccc4C3C2)cc1` (stereo not drawn) [Compound 12], in assay [1], the “Activity class for HIV-1-MDR test” value is reported as 7.35. Also, in assay [2] (setting [3]), the “Activity class for HIV-1-LAI test” value was determined as 7.16.

Regarding `CN(Cc1ccc(C2=NN3C(C(=O)c4ccc(C#N)cc4)Oc4ccccc4C3C2)cc1)C1CCCC1` (stereo not drawn) [Compound 13], the “Activity class for HIV-1-MDR test” value in assay [1] was 8.62. For the same molecule, the “Activity class for HIV-1-LAI test” value in assay [2] (setting [3]) is listed as 8.32.

For the molecule `COc1ccc(CN(C)Cc2ccc(C3=NN4C(C(=O)c5ccc(C#N)cc5)Oc5ccccc5C4C3)cc2)cc1` (stereo not drawn) [Compound 8], the “Activity class for HIV-1-MDR test” value in assay [1] stood at 7.85. For the same molecule, the “Activity class for HIV-1-LAI test” value in assay [2] (setting [3]) was determined as 7.81.

With `N#Cc1ccc(C(=O)C2Oc3ccccc3C3CC(c4ccc(CNCc5ccccn5)cc4)=NN23)cc1` (stereo not drawn) [Compound 6], in assay [1], the “Activity class for HIV-1-MDR test” value is reported as 7.28. Moreover, the “Activity class for HIV-1-LAI test” value in assay [2] (setting [3]) is recorded as 7.13.

Consider `N#Cc1ccc(C(=O)C2Oc3ccccc3C3CC(c4ccc(CCNCc5ccccc5)cc4)=NN23)cc1` (stereo not drawn) [Compound 33], for which the “Activity class for HIV-1-MDR test” value in assay [1] was determined as 6.07. Besides, the “Activity class for HIV-1-LAI test” value in assay [2] (setting [3]) is given as 6.35.

Take `CN(C)CCN(C)CCCCc1ccc(C2=NN3C(C(=O)c4ccc(C#N)cc4)Oc4ccccc4C3C2)cc1` (stereo not drawn) [Compound 22]: the “Activity class for HIV-1-MDR test” value in assay [1] worked out at 5.47. Moreover, in assay [2] (setting [3]), the “Activity class for HIV-1-LAI test” value amounted to 5.52.

For the molecule `N#Cc1ccc(C(=O)C2Oc3ccccc3C3CC(c4ccc(CCCCNCc5ccccn5)cc4)=NN23)cc1` (stereo not drawn) [Compound 26], the “Activity class for HIV-1-MDR test” value in assay [1] was determined as 4.86. Also, the “Activity class for HIV-1-LAI test” value in assay [2] (setting [3]) came out at 5.28.

On to `CN(Cc1ccc(C2=NN3C(C(=O)c4ccc(C#N)cc4)Oc4ccccc4C3C2)cc1)Cc1ccc(N(C)C)cc1` (stereo not drawn) [Compound 36], for which the “Activity class for HIV-1-MDR test” value in assay [1] was 7.18. The “Activity class for HIV-1-LAI test” value in assay [2] (setting [3]) is listed as 7.45.

Consider `N#Cc1ccc(C(=O)C2Oc3ccccc3C3CC(c4ccc(CCCNCc5ccccc5)cc4)=NN23)cc1` (stereo not drawn) [Compound 17], for which the “Activity class for HIV-1-MDR test” value in assay [1] turned out to be 5.37. Moreover, in assay [2] (setting [3]), the “Activity class for HIV-1-LAI test” value was 5.56.

With `N#Cc1ccc(C(=O)C2Oc3ccccc3C3CC(c4ccc(CNCc5ccccc5)cc4)=NN23)cc1` (stereo not drawn) [Compound 2], in assay [1], the “Activity class for HIV-1-MDR test” value was found to be 7.83. Also, the “Activity class for HIV-1-LAI test” value in assay [2] (setting [3]) was 7.58.

Turning to `N#Cc1ccc(C(=O)C2Oc3ccccc3C3CC(c4ccc(CNCCN5CCCC5)cc4)=NN23)cc1` (stereo not drawn) [Compound 7], the “Activity class for HIV-1-MDR test” value in assay [1] came out at 6.49. Moreover, the “Activity class for HIV-1-LAI test” value in assay [2] (setting [3]) was 6.55.

As to `CN(C)CCCc1ccc(C2=NN3C(C(=O)c4ccc(C#N)cc4)Oc4ccccc4C3C2)cc1` (stereo not drawn) [Compound 16], the “Activity class for HIV-1-MDR test” value in assay [1] was found to be 5.51. Further, in assay [2], the “Activity class for HIV-1-LAI test” value is 5.6.

Regarding `N#Cc1ccc(C(=O)C2Oc3ccccc3C3CC(c4ccc(CCCNCc5ccccn5)cc4)=NN23)cc1` (stereo not drawn) [Compound 31], the “Activity class for HIV-1-MDR test” value in assay [1] was 5.38. Further, the “Activity class for HIV-1-LAI test” value in assay [2] (setting [3]) is listed as 4.85.

On to `CN(C)c1ccc(CNCc2ccc(C3=NN4C(C(=O)c5ccc(C#N)cc5)Oc5ccccc5C4C3)cc2)cc1` (stereo not drawn) [Compound 37], for which, in assay [1], the “Activity class for HIV-1-MDR test” value is listed as 6.31. The “Activity class for HIV-1-LAI test” value in assay [2] (setting [3]) is 6.12.
